From patent US20160015813A1, “NOVEL AND SYNERGISTIC COMPOSITION OF LECITHIN AND LYSOLECITHIN FOR IMPROVING BIOAVAILABILITY AND SOLUBILITY OF HYDROPHOBIC COMPOUNDS AND EXTRACTS” (priority 2014, published 2016) come the findings set out here.

A short description of the series: Oral bioavailability study of berberine formulation versus unformulated berberine (berberine concentration in serum). The format is in vivo, Sprague Dawley rats. The settings on record: Sprague Dawley, rat. The method, then:
The study was conducted to evaluate the bioavailability of orally administered curcuminoid compositions (Table 1 and Example. 2), formulated using a synergistic combination of lecithin and lysolecithin in Sprague Dawley rats. Compositions formulated with lecithin or lysolecithin alone were also tested along with Meriva (Batch No FG-6558). These formulations were prepared using similar procedure described in examples 2 and 3. Total of twelve (12) animals were divided into four groups having three animals in each group. The test substances were administered orally to the animals via oral gavage once at 125 mg/Kg body weight active ingredient equivalent to Active ingredient. Pre-dose or 0th time blood samples were collected from all the animals before dosing the test substance, followed by blood sampling at 0.15, 0.5, 1, 1.5, 2, 4, 8, 12 and 24 hrs after dosing the test substance by sinus orbital plexus under anesthesia. Serum was separated from blood by centrifugation and was subjected to LC-MS/MS analysis for estimation of curcumin concentration in serum samples.
The similar protocol was used for the evaluation of oral bio-availability of berberine formulation (Example. 3) in comparison with the unformulated berberine and for estimation of berberine concentration in serum samples. The berberine compound and its formulations were supplemented to the animals at a dose equivalent to 100 mg/kg bodyweight of active Berberine.

The structures appear in SMILES notation. Where two headings read alike, the source gives them in different places.

As to `COc1ccc2cc3[n+](cc2c1OC)CCc1cc2c(cc1-3)OCO2` [LI32001, Berberine], the AUC(0-t) by setting is: (serum, 100 mg/kg bodyweight of active Berberine, single oral administration, read-out: Oral exposures (AUClast)) 23.7 ± 7.99 ng·h/mL; (rats, single oral dose equivalent to 100 mg/kg BW berberine, berberine in serum, 6 animals, read-out: AUClast (0-24 h)) 23.7 ± 7.99 ng·h/mL. The Cmax (rats, single oral dose equivalent to 100 mg/kg BW berberine, berberine in serum, 6 animals) was determined as 4.2 ± 1.85 ng/mL.

As usually defined, the Cmax is the peak of the concentration-time curve.
